Results as given in ChEMBL document CHEMBL1201862, “PubChem BioAssay data set” (2004).
Calls of active or inactive are those of the source.

How the values were obtained:
Assay type in all cases: functional
[1] = biological target: T1, Serine/threonine-protein kinase TAO1 (Homo sapiens, UniProt Q7L7X3)
T1 sequence (Q7L7X3 whole entry): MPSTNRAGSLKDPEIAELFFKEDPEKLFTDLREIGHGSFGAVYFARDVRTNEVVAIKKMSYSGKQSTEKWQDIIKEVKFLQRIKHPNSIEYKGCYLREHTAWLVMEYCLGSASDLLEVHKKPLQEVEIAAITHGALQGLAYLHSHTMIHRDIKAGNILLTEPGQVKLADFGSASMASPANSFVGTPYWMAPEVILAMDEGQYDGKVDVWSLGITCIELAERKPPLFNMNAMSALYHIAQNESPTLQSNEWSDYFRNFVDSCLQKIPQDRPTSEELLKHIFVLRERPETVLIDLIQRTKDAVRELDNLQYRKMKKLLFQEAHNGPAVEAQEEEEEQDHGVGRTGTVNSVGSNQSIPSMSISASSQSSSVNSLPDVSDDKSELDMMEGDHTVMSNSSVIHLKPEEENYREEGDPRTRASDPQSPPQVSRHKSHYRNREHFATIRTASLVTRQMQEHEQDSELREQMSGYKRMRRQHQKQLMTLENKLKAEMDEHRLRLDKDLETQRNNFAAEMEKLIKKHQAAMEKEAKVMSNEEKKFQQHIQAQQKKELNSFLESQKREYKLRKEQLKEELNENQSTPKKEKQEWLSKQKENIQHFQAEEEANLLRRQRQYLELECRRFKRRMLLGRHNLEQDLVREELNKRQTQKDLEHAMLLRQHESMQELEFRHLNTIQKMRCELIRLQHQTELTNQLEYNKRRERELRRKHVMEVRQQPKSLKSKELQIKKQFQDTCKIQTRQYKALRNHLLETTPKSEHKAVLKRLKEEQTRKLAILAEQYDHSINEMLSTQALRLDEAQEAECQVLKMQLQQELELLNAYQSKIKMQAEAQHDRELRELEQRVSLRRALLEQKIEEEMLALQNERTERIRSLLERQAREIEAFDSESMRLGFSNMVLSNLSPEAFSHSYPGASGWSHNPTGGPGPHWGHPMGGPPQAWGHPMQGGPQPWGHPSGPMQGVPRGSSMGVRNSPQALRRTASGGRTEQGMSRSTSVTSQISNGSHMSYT

[2] = biological target: Serine/threonine-protein kinase N2 (Homo sapiens, UniProt Q16513)
Chain of Serine/threonine-protein kinase N2 (Q16513 whole entry): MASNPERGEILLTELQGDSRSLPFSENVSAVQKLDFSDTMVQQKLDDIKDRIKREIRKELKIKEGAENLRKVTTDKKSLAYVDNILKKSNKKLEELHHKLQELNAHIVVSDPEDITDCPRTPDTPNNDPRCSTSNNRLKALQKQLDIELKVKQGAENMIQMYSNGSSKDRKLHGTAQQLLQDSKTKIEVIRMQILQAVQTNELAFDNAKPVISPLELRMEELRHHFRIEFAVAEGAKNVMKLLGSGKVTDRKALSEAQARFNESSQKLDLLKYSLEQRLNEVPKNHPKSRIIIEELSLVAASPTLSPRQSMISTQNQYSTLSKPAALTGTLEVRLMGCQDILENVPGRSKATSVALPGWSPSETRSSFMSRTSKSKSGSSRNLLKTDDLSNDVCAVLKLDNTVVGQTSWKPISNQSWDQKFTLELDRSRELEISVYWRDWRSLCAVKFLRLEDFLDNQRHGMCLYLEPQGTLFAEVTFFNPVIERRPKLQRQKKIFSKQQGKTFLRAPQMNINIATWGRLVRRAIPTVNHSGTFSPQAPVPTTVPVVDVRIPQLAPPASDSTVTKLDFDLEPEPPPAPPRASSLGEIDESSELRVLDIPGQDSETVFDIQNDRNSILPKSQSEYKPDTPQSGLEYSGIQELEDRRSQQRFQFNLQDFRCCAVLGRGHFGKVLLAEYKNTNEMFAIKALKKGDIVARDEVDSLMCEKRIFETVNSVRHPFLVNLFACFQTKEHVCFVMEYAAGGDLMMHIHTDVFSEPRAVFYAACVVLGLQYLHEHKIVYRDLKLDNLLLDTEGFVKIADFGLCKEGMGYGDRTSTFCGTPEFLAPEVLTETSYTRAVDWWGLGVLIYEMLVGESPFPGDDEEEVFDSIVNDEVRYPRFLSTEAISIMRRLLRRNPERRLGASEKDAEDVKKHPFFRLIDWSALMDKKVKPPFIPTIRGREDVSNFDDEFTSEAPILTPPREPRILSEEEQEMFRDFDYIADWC

[3] = biological target: 5'-AMP-activated protein kinase catalytic subunit alpha-1 (Homo sapiens, UniProt Q13131)
Chain of 5'-AMP-activated protein kinase catalytic subunit alpha-1 (Q13131 whole entry): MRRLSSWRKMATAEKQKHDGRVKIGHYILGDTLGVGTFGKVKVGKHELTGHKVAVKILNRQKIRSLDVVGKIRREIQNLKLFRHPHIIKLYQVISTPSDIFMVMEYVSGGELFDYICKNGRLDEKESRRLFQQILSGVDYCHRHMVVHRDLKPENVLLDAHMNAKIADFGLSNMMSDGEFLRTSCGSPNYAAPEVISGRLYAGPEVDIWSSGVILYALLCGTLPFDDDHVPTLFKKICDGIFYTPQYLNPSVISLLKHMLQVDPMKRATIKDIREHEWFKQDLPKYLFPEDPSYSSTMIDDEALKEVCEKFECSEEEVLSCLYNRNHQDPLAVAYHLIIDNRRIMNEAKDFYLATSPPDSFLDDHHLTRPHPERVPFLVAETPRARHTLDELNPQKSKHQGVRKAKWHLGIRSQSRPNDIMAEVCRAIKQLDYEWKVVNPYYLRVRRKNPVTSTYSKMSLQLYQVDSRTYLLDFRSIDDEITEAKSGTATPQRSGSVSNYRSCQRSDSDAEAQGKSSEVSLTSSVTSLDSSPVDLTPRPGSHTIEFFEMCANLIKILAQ

[4] = biological target: MAP kinase-activated protein kinase 2 (Homo sapiens, UniProt P49137);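 note: measured as one member of a kinome-wide kinase panel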
Chain of MAP kinase-activated protein kinase 2 (P49137 whole entry): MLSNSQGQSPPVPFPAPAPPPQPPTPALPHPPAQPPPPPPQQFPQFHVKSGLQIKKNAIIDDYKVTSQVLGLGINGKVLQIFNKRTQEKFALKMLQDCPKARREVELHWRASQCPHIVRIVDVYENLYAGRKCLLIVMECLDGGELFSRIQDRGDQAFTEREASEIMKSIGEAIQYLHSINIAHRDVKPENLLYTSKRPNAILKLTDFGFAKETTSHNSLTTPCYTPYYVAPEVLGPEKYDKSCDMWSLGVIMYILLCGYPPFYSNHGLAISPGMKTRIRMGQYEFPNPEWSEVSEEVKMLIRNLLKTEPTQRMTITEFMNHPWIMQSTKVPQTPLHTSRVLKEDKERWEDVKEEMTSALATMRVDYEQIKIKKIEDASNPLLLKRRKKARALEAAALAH

[5] = biological target: T2, Mitogen-activated protein kinase 12 (Homo sapiens, UniProt P53778);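 note: measured as one member of a kinome-wide kinase profiling panel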
T2 sequence (P53778 whole entry): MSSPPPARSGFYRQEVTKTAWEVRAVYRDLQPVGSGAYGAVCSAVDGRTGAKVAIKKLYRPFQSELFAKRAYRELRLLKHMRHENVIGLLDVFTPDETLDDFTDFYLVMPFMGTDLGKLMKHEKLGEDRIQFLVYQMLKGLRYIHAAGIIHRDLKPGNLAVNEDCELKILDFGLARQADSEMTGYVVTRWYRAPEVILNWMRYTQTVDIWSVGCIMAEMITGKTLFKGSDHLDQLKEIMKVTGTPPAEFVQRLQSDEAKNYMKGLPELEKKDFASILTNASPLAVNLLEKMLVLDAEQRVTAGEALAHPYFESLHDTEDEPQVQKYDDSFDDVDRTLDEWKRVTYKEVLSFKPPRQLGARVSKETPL

[6] = biological target: Receptor tyrosine-protein kinase erbB-4 (Homo sapiens, UniProt Q15303);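 note: ERBB4 member of a kinome-wide kinase profiling panel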
[7] = biological target: Serine/threonine-protein kinase PAK 4 (Homo sapiens, UniProt O96013);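 note: value obtained within a kinome profiling panel in which PAK4 was one of the panel members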
[8] = biological target: Serine/threonine-protein kinase pim-2 (Homo sapiens, UniProt Q9P1W9);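 note: value comes from a broad kinase panel profiling study in which PIM2 was one of the panel members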
Chain of Serine/threonine-protein kinase pim-2 (Q9P1W9 whole entry): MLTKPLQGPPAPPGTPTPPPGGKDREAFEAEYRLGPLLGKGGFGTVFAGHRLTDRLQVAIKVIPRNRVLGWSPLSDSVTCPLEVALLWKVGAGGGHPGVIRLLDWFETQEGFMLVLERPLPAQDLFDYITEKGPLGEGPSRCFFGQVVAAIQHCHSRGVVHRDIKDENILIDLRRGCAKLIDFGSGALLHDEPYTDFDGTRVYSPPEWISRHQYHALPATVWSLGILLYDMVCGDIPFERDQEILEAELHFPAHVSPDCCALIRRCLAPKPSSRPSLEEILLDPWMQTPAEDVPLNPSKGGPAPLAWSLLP

[9] = biological target: Fibroblast growth factor receptor 1 (Homo sapiens, UniProt P11362)
Chain of Fibroblast growth factor receptor 1 (P11362 whole entry): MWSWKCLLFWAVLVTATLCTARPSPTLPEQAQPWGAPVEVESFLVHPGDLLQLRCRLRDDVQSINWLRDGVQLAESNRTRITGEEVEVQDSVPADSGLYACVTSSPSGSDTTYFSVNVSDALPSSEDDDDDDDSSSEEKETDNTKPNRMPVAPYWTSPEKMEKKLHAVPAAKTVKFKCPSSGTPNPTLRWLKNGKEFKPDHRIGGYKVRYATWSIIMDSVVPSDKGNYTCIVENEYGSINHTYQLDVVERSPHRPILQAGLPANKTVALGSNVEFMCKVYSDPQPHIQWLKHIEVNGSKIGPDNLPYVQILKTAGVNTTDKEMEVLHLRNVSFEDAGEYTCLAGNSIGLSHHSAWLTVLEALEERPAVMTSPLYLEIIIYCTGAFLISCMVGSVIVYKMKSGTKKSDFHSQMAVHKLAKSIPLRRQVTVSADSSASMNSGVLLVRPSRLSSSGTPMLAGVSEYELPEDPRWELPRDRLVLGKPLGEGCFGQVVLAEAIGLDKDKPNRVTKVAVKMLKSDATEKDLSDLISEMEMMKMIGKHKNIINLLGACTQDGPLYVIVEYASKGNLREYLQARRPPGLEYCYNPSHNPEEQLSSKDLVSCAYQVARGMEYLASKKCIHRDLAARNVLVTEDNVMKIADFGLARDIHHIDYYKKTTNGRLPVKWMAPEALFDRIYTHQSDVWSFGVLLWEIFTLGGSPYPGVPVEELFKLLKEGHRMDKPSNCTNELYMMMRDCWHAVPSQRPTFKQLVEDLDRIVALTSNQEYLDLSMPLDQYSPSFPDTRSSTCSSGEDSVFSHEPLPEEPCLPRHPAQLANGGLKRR

[10] = biological target: ALK tyrosine kinase receptor (Homo sapiens, UniProt Q9UM73);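 note: ALK tested as one member of a kinase panel screen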
Chain of ALK tyrosine kinase receptor (Q9UM73 whole entry): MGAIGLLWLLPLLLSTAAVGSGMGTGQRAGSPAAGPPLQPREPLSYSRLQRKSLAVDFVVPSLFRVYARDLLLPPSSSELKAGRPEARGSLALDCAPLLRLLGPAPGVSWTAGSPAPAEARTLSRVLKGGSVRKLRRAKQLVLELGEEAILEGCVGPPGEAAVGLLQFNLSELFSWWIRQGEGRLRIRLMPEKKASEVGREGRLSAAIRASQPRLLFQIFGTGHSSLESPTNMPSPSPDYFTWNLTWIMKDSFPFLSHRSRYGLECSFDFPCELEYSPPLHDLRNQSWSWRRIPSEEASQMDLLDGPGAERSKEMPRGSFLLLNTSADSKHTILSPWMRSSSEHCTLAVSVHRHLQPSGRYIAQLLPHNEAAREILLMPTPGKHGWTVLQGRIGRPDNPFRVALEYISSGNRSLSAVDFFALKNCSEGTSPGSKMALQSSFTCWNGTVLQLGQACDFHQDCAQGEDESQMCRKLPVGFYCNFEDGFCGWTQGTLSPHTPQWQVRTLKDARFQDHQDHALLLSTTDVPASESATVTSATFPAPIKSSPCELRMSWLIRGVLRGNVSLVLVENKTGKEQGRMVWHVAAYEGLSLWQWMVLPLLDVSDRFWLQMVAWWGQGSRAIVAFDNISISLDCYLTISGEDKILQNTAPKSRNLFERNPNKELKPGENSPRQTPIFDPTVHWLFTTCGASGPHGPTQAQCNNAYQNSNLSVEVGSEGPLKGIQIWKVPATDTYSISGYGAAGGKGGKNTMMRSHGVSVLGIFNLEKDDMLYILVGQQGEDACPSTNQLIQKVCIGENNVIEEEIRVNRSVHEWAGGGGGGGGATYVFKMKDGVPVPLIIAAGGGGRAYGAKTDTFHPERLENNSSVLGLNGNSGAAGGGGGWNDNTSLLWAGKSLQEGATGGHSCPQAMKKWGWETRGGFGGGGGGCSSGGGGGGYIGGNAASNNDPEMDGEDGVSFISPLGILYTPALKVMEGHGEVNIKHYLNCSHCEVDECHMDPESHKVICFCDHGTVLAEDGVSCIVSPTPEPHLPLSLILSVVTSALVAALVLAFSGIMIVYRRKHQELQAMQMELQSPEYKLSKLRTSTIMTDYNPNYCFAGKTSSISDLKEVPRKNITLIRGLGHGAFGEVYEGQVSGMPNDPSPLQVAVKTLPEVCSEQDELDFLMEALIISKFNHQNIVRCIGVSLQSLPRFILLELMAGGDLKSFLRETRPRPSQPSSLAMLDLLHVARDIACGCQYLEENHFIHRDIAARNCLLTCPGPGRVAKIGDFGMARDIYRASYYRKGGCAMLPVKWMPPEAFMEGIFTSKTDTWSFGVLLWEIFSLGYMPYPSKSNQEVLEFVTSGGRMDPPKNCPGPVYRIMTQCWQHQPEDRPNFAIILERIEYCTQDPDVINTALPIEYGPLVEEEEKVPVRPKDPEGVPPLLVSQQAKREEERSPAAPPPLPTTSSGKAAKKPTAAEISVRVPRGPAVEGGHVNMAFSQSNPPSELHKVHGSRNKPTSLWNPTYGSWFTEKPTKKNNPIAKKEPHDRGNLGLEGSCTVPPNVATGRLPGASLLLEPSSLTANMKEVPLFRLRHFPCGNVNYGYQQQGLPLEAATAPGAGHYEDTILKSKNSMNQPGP

[11] = biological target: T3, Tyrosine-protein kinase JAK3 (Homo sapiens, UniProt P52333)
T3 sequence (P52333 whole entry): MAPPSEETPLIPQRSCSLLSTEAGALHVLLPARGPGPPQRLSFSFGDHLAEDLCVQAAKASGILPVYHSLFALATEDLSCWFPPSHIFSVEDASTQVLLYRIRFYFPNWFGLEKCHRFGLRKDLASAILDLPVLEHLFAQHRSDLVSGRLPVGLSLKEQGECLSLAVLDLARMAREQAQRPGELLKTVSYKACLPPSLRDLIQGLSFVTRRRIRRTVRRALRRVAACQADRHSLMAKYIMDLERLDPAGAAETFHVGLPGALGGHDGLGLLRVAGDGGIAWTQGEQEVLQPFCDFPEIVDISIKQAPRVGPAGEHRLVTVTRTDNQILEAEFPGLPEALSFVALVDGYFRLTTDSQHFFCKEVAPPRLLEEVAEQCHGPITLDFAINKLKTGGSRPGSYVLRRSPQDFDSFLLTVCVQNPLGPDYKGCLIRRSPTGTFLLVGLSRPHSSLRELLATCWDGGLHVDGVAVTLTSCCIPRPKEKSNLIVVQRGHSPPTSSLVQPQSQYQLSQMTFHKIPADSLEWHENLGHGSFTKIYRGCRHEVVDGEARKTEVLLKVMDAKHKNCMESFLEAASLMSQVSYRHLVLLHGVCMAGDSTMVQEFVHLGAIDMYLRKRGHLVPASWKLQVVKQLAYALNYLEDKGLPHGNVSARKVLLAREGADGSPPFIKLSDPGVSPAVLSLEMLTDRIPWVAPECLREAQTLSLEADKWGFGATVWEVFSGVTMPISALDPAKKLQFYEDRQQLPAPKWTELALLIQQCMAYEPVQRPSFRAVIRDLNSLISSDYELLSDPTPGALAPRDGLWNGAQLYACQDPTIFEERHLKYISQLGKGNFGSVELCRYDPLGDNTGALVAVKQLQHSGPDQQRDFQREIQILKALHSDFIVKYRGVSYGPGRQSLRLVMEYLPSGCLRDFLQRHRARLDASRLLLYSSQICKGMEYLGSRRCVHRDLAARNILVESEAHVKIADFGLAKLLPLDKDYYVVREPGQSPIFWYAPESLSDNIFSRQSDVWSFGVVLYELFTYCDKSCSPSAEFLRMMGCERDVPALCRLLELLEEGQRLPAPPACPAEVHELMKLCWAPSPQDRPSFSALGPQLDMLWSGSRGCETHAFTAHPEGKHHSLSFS

Row | Ki [1] | pKi [1] | Ki [2] | pKi [2] | Ki [3] | Ki [4] | Ki [5] | pKi [5] | Ki [6] | Ki [7] | Ki [8] | Ki [9] | Ki [10] | Ki [11] | pKi [11] | Structure (SMILES)
1 | 0.251 µM (active) | 6.6 | 0.02 µM (active) | 7.7 | > 1.58 µM (inactive) | > 7.94 µM (inactive) | 0.0794 µM (active) | 7.1 | > 3.98 µM (inactive) | > 5.01 µM (inactive) | > 1.58 µM (inactive) | > 3.98 µM (inactive) | > 1.26 µM (inactive) | 1 µM (active) | 6 | NC(=O)c1cc(-c2ccnc(N)n2)[nH]c1-c1ccc(Cl)cc1Cl
2 | 0.126 µM (active) | – | 0.00501 µM (active) | – | 0.02 µM (active) | 2 µM (active) | 2.51 µM (active) | – | > 3.98 µM (inactive) | 1.26 µM (active) | 0.001 µM (active) | 0.794 µM (active) | > 1.26 µM (inactive) | 0.0501 µM (active) | – | NC(COc1cncc(-c2ccc3c(c2)C(=Cc2ccco2)C(=O)N3)c1)Cc1c[nH]c2ccccc12 (stereo unspecified)
